Series [1] has as its target muscarinic acetylcholine receptors. Kind of series: Inhibition of specific binding of 3H-Oxotremorine-M (3H-Oxo) to rat cortex membranes. The conditions noted are these: rat cortex homogenate, 1.0 nM 3H-Oxotremorine, 30 min at 25° C. The text has this: The pharmacological properties of the compounds of the invention can be illustrated by determining their capability to inhibit the specific binding of ^3H-Oxotremorine-M (^3H-Oxo). Birdsdall N. J. M., Hulme E. C., and Burgen A. S. V. (1980). “The Character of Muscarinic Receptors in Different Regions of the Rat Brain”. Proc. Roy. Soc. London (Series B) 207, 1.
^3H-Oxo labels muscarinic receptor in the CNS (with a preference for agonist domains of the receptors). Three different sites are labelled by ^3H-Oxo. […] Using the present experimental conditions only the high and medium affinity sites are determined.
The inhibitory effects of compounds on ^3H-Oxo binding reflects the affinity for muscarinic acetylcholine receptors.
All preparations are performed at 0-4° C. unless otherwise indicated. Fresh cortex (0.1-1 g) from male Wistar rats (150-250 g) is homogenized for 5-10 s in 10 ml 20 mM Hepes pH: 7.4, with an Ultra-Turrax homogenizer. The homogenizer is rinsed with 10 ml of buffer and the combined suspension centrifuged for 15 min. at 40,000×g. The pellet is washed three times with buffer. In each step the pellet is homogenized as before in 2×10 ml of buffer and centrifuged for 10 min. at 40,000×g.
The final pellet is homogenized in 20 mM Hepes pH: 7.4 (100 ml per g of original tissue) and used for binding assay. Aliquots of 0.5 ml is added 25 μl of test solution and 25 μl of ^3H-Oxotremorine (1.0 nM, final concentration) mixed and incubated for 30 min. at 25° C. Non-specific binding is determined in triplicate using arecoline (1 μg/ml, final concentration) as the test substance. After incubation samples are added 5 ml of ice-cold buffer and poured directly onto Whatman GF/C glass fiber filters under suction and immediately washed 2 times with 5 ml of ice-cold buffer. The amount of radioactivity on the filters are determined by conventional liquid scintillation counting. Specific binding is total binding minus non specific binding.
Test substances are dissolved in 10 ml water (if necessary heated on a steambath for less than 5 min.) at a concentration of 2.2 mg/ml. 25-75% inhibition of specific binding must be obtained before calculation of IC50.
The test value will be given as IC50 (the concentration (nM) of the test substance which inhibits the specific binding of ^3H-Oxo by 50%).
(§1) IC50=(applied test substance concentration)×(Cx/Co−Cx)nM
(§2) where Co is specific binding in control assays and Cx is the specific binding in the test assay. (The calculations assume normal mass-action kinetics).

In series [2] the target is T1, muscarinic receptors (M1-site, pirenzepine sensitive site) (Rattus norvegicus, UniProt P08482).
T1 construct: Fresh cortex (0.1-1 g) from male Wistar rats (150-200 g) is homogenized; from tissue; host or cells: rat (male Wistar) cerebral cortex membranes
T1 sequence (P08482 1-460): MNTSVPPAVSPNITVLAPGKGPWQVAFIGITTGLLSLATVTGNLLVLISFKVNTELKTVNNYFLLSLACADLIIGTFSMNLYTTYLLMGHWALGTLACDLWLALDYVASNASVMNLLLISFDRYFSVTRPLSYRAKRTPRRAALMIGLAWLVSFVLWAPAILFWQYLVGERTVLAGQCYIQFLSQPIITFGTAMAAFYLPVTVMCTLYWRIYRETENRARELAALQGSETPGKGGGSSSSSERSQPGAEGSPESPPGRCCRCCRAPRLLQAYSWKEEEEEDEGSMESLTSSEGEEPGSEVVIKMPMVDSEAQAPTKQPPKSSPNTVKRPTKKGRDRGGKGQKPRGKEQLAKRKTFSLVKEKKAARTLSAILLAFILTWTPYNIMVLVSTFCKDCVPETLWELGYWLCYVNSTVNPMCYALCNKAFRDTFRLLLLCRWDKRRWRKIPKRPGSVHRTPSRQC
Kind of series: Inhibition of 3H-PRZ (pirenzepine, [N-methyl-3H]) binding to rat cerebral cortex membranes. The conditions noted are these: 1.0 nM 3H-Pirenzepine, 60 min at 20° C. How it is done: Furthermore the pharmacological properties of the compounds of the invention can also be illustrated by determining their capability to inhibit ^3H-PRZ (pirenzepine, [N-methyl-^3H]) binding to rat cerebral cortex membranes. Pirenzepine binds selectively to subtype of muscarinic receptors. Historically the type is named the M1-site, whereas pirenzepine sensitive site would be more appropriate. Although selective for M1-sites pirenzepine also interact with M2-sites.
All preparations are performed at 0-4° C. unless otherwise indicated. Fresh cortex (0.1-1 g) from male Wistar rats (150-200 g) is homogenized for 5-10 s. in 10 ml 20 mM Hepes pH: 7.4, with an Ultra-Turrax homogenizer. The homogenizer is rinsed with 2×10 ml of buffer and the combined suspension centrifuged for 15 min at 40,000×g. The pellet is washed three times with buffer. In each step the pellet is homogenized as before in 3×10 ml of buffer and centrifuged for 10 min at 40,000×g.
The final pellet is homogenized in 20 mM Hepes pH: 7.4 (100 ml per g of original tissue) and used for binding assay. Aliquots of 0.5 ml is added 20 μl of test solution and 25 μl of ^3H-Pirenzepine (1.0 nM, final conc.), mixed and incubated for 60 min at 20° C. Non-specific binding is determined in triplicate using atropine (1 μg/ml, final conc.) as the test substance. After incubation samples are added 5 ml of ice-cold buffer and poured directly onto Whatman GF/C glass fiber filters under suction and immediately washed 2 times with 5 ml of ice-cold buffer. The amount of radioactivity on the filters are determined by conventional liquid scintillation counting. Specific binding is total binding minus non-specific binding.
Test substances are dissolved in 10 ml water, at a concentration of 0.22 mg/ml. 25-75% inhibition of specific binding must be obtained before calculation of IC50.
The test value will be given as IC50 (the concentration (nM) of the test substance which inhibits the specific binding of ^3H-PRZ by 50%).
as §1, §2

Molecules are shown by their SMILES.

One may read the IC50 as the midpoint of a concentration-inhibition curve. High values mean weaker potency, low ones greater potency. In general, melting point refers to the temperature, or range, at which the solid turns liquid. For the molecule `CC(C#Cc1ccc(F)cc1)=CCOc1nsnc1OC1CN2CCC1C2` (stereo not drawn) [Compound 22, Endo (E)-3-(3-(5-(4-fluorophenyl)-3-methyl-2-penten-4-yn-1-yloxy)-1,2,5-thiadiazol-4-yloxy)-1-azabicyclo[2.2.1]heptane], the melting point fell in the range of 82 to 84 °C. In series [1], this molecule showed an IC50 of 0.19 µM. In series [2], this molecule had an IC50 of 0.05 µM.
